According to patent publication US8853216B2, “Hydroxylated pyrimidyl cyclopentane as AKT protein kinase inhibitor” (Array BioPharma, Inc., priority 2008, dated 2014):

Biological target: full-length human recombinant active AKT-1 (Homo sapiens, UniProt P31749)
Test: AKT-1 Kinase Assay (IMAP fluorescence polarization)
Type: biochemical
Conditions: phosphorylation of fluorescein-labeled Crosstide peptide by AKT-1, 60 minute incubation at ambient temperature
Description: The activity of the compound described in the present invention may be determined by the following kinase assay, which measures the phosphorylation of a fluorescently-labeled peptide by full-length human recombinant active AKT-1 by fluorescent polarization using a commercially available IMAP kit.
The assay materials are obtained from an IMAP AKT Assay Bulk Kit, product #R8059, from Molecular Devices, Sunnyvale, Calif. The kit materials include an IMAP Reaction Buffer (5×). The diluted 1×IMAP Reaction Buffer contained 10 mM Tris-HCl, pH 7.2, 10 mM MgCl2, 0.1% BSA, 0.05% NaN3. DTT is routinely added to a final concentration of 1 mM immediately prior to use. Also included is IMAP Binding Buffer (5×), and IMAP Binding Reagent. The Binding Solution is prepared as a 1:400 dilution of IMAP Binding Reagent into 1×IMAP Binding Buffer.
The fluorescein-labeled AKT Substrate (Crosstide) has the sequence (Fl)-GRPRTSSFAEG. A stock solution of 20 μM is made up in 1×IMAP Reaction Buffer. […]
The assay is initiated by the addition of 2.5-μL aliquots of a solution containing 200 nM of fluorescently-labeled peptide substrate and 4 nM AKT-1. […] The reaction is then quenched by the addition of 15 μL of Binding Solution, centrifuged again and incubated for an additional 30 minutes at ambient temperature prior to reading on a Victor 1420 Multilabel HTS Counter configured to measure fluorescence polarization.

Sequence of full-length human recombinant active AKT-1 (P31749 whole entry): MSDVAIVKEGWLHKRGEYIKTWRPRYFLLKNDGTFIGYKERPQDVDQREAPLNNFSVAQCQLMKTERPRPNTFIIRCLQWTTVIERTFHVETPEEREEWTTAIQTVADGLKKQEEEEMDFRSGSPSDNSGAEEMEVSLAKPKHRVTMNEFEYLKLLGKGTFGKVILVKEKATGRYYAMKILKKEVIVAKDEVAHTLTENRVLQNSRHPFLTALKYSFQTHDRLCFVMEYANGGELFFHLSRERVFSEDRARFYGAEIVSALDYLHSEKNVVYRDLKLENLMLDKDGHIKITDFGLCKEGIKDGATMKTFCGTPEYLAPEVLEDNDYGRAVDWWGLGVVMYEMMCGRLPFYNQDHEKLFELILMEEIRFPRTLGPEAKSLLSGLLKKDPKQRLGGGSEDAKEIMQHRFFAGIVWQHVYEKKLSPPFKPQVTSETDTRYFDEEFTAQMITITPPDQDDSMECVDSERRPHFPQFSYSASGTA

IC50: < 500 nM
SMILES: CO[C@H]1CC[C@H](NC[C@@H](C(=O)N2CCN(c3ncnc4c3[C@H](C)C[C@H]4O)CC2)c2ccc(Cl)c(F)c2)CC1 [Example 1, (S)-2-(4-chloro-3-fluorophenyl)-1-(4-((5R,7R)-7-hydroxy-5-methyl-6,7-dihydro-5H-cyclopenta[d]pyrimidin-4-yl)piperazin-1-yl)-3-((1r,4S)-4-methoxycyclohexylamino)propan-1-one]
